Assays:
[1] = target: T1, HDAC8 (Homo sapiens, UniProt Q9BY41); test: HDAC-Glo I/II enzymatic assay, HDAC8; format: biochemical; conditions: read-out: HDAC8 pIC50 (converted)
T1 construct: purchased BPS Bioscience 50008
T1 sequence (Q9BY41 1-377): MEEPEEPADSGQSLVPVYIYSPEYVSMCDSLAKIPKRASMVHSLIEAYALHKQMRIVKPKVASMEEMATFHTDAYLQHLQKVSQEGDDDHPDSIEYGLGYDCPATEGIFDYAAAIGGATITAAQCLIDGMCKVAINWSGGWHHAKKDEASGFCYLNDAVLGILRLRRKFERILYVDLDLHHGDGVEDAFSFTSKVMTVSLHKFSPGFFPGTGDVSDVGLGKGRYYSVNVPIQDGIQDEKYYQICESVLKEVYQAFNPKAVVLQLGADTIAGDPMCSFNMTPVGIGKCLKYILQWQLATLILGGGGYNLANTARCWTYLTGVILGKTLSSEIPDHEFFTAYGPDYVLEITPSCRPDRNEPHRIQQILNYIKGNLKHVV
Protocol: (§1) Inhibitors were tested at eight serial dilutions in triplicate ranging from 50 μM–86,7 pM (HDAC6) or 100 μM–8,67 nM (HDAC1,2,3,8). Drug dosing was performed from 10 mM and 0.1 mM DMSO stock solutions with a D300e Digital Dispenser (Tecan). HDACs (7 ng/mL for HDAC1, 10 ng/mL for HDAC2, 200 ng/mL for HDAC3/Ncor2 complex, 100 ng/mL for HDAC6, 200 ng/mL for HDAC8) and inhibitors were incubated together for 30 min at room temperature. After addition of the HDAC‐Glo™ I/II reagent, plates were shaken (800 rpm orbital shaker, 30 s), centrifuged (300 g, 1 min) and incubated at room temperature for 30 min. Luminescence was detected with a CLARIOstar (BMG Labtech) plate reader.

[2] = target: T2, HDAC10 (Homo sapiens, UniProt Q969S8); test: ligand displacement TR-FRET assay, HDAC10; format: binding; parameters: host or cells: Sf21 insect cells (baculovirus); conditions: for IC50: ligand-displacement FRET assay, read-out: HDAC10 pIC50 (converted)
T2 sequence (Q969S8 1-669): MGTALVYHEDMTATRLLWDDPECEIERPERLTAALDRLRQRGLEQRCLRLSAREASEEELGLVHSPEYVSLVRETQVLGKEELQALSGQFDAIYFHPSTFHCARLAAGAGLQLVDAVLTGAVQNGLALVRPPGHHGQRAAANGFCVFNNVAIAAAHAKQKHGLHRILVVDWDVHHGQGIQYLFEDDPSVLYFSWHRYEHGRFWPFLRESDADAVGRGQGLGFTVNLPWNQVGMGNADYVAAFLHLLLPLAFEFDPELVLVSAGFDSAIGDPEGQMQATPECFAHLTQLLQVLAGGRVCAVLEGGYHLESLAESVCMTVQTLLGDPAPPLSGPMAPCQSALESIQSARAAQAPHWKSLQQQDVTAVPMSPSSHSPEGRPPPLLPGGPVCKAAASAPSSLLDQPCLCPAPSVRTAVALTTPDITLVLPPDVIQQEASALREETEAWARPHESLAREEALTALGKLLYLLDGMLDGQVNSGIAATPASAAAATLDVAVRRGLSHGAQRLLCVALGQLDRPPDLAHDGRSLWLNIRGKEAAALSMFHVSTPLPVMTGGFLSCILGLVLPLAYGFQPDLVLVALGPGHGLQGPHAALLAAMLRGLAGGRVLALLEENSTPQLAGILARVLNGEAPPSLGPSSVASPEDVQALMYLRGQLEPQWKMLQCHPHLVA
Protocol: Expression and purification of TwinStrepII‐GST‐HDAC10: A synthetic gene encoding TwinStrepII‐GST‐HDAC10 (human) was ordered from GeneArt (Thermo Fischer Scientific) and subcloned into the pFastBac1 vector. The resulting construct was used for transposition in E. coli DH10EMBacY cells. The isolated bacmid DNA was then used to generate the recombinant baculovirus. For protein expression, 10 mL of baculovirus was added to 1 L of Sf21 cells at a density of 1×10^6 cells/mL. The infected Sf21 cells were grown for 72 h in Sf‐900 III SFM medium (Thermo Fischer Scientific) at 27 °C. Cells were harvested by centrifugation and re‐suspended in running buffer (100 mM Tris pH 8.0, 150 mM NaCl, 1 mM EDTA and 1 mM DTT) supplemented with 10 mM MgCl2, benzonase and cOmplete protease inhibitors (Merck). […] The clarified lysate was then loaded onto a 5 mL Strep‐Tactin Superflow high capacity column (IBA) pre‐equilibrated in running buffer. After sample loading and washing, the TwinStrepII‐GST‐HDAC10 protein was eluted in running buffer supplemented with 5 mM desthiobiotin (IBA). The elution fractions containing TwinStrepII‐GST‐HDAC10 were pooled and concentrated before being injected onto a HiLoad 16/600 Superdex 200 pg size exclusion chromatography column (GE Healthcare) pre‐equilibrated with 25 mM HEPES/NaCl pH 7.5, 150 mM NaCl, 0.5 mM EDTA, 1 mM DTT and 10 % glycerol. Samples were eluted from the size exclusion chromatography column in the same buffer, flash‐frozen in liquid N2 and stored at −80 °C.
The TR‐FRET measurements of the monohydroxamic acids in this manuscript were measured in the original assay format, which is described directly below this paragraph. The TR‐FRET measurements of the dihydroxamic acids in this manuscript were measured in the modified format, which is described two paragraphs below this one.
The concentrations of reagents in 10 μL final assay volume were 3 nM GST‐HDAC10, 30 nM “Tubastatin‐Alexa647‐Tracer” and 0.5 nM Eu‐anti‐GST. GST‐HDAC10 and LanthaScreen™ Eu‐anti‐GST Antibody were purchased from Life Technologies, and the Tubastatin‐Alexa647‐Tracer was synthesized in‐house as previously described.19 An 11‐fold 1 : 3‐serial dilution of compounds starting at 2 mM was prepared in 384 well pp‐plates (Greiner) from 10 mM stocks in DMSO and 1 μL was transferred to assay plates. Nine μL of the reagent‐mix was added and the plate was incubated for 1 h at RT before TR‐FRET was measured in an EnVision™ plate reader equipped with a TR‐FRET Laser module. […] Percent inhibition was calculated for each well from negative control wells containing 2 % DMSO and positive control wells containing 20 μM SAHA. The resulting dose‐response curves were fitted in ActivityBase (IDBS) using a four‐parameter logistic model and pIC50‐values were calculated.
After drug dosing to the premixed assay reagents in buffer, plates were shaken (800 rpm orbital shaker, 30 s), centrifuged (300 g, 1 min) and incubated at room temperature in the dark for 60 min. TR‐FRET was measured with a CLARIOstar (BMG Labtech) plate reader, equipped with TR‐FRET filters.

[3] = target: T3, HDAC1 (Homo sapiens, UniProt Q13547); test: HDAC-Glo I/II enzymatic assay, HDAC1; format: biochemical; conditions: read-out: HDAC1 pIC50 (converted)
T3 construct: purchased BPS Bioscience 50051
T3 sequence (Q13547 whole entry): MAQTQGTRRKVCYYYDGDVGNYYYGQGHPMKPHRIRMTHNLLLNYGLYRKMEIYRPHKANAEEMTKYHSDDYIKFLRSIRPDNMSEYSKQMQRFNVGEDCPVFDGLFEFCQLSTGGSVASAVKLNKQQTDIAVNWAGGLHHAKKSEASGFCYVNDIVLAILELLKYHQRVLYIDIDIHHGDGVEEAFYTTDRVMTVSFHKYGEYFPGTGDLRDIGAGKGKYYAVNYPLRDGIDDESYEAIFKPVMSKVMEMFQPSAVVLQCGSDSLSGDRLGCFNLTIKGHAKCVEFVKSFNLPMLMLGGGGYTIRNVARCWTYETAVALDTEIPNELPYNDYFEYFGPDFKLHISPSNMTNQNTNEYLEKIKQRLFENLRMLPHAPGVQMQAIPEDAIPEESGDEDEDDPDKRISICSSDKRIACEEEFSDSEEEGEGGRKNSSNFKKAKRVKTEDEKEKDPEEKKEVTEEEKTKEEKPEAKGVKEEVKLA
Protocol: as §1

[4] = target: T4, HDAC2 (Homo sapiens, UniProt Q92769); test: HDAC-Glo I/II enzymatic assay, HDAC2; format: biochemical; conditions: read-out: HDAC2 pIC50 (converted)
T4 construct: purchased BPS Bioscience 50002
T4 sequence (Q92769 whole entry): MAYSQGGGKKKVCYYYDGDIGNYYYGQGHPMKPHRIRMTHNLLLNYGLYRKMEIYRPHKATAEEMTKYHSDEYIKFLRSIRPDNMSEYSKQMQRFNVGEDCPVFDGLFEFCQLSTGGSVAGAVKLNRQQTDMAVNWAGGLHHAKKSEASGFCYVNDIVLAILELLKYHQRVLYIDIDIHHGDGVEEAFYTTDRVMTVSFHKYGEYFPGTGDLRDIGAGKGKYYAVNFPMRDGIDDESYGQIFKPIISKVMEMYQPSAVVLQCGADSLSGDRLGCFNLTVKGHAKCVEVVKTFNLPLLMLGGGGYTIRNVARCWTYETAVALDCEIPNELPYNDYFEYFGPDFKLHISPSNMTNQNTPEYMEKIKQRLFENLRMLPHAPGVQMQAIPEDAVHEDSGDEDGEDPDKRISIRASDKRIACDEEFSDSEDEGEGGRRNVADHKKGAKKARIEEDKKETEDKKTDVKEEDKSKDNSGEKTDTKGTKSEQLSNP
Protocol: as §1

Row | Structure (SMILES) | IC50 [1] [nM] | IC50 [2] [nM] | IC50 [3] [nM] | IC50 [4] [nM] | increase in HDAC10 potency over the monohydroxamic acid 1f ([2]; FRET assay, 3f versus 1f) [factor]
1 | CN(C)Cc1nn(Cc2ccc(C(=O)NO)cc2)c2ccccc12 [Compound 1g] | 851 | 19.5 | – | – | –
2 | O=C(NO)c1ccc(Cn2ccc3ccc(C(=O)NO)cc32)cc1 [Compound 3a] | 67.6 | 2.57 | 263 | 2240 | –
3 | CN1CCc2c(c3ccc(C(=O)NO)cc3n2Cc2ccc(C(=O)NO)cc2)C1 [Compound 3c] | 513 | 12.3 | 501 | 4170 | –
4 | O=C(NO)c1ccc(Cc2c[nH]c3ccc(C(=O)NO)cc23)cc1 [Compound 3d] | 97.7 | 3.24 | 525 | 4680 | –
5 | O=C(NO)c1ccc(Cn2ncc3ccc(C(=O)NO)cc32)cc1 [Compound 3f] | 42.7 | 3.39 | 87.1 | 724 | ~70

Now from value to compound:

Row | IC50 [1] [nM] | IC50 [2] [nM] | IC50 [3] [nM] | IC50 [4] [nM] | increase in HDAC10 potency over the monohydroxamic acid 1f ([2]; FRET assay, 3f versus 1f) [factor] | Structure (SMILES)
6 | 166 | 2.82 | 617 | 5370 | – | CN(C)Cc1cn(Cc2ccc(C(=O)NO)cc2)c2cc(C(=O)NO)ccc12 [Compound 3b]
7 | 66.1 | 3.02 | 813 | 7080 | – | CN(C)CCn1cc(Cc2ccc(C(=O)NO)cc2)c2cc(C(=O)NO)ccc21 [Compound 3e]
8 | 89.1 | 3.98 | 661 | 9550 | – | CN(C)Cc1nn(Cc2ccc(C(=O)NO)cc2)c2cc(C(=O)NO)ccc12 [Compound 3g]

From paper PMC7335359, “Design and Synthesis of Dihydroxamic Acids as HDAC6/8/10 Inhibitors” (Chemmedchem, 2020)
